From patent US20240240189A1, “CANCER TREATMENT BY TARGETING PROTEINS OR INTERACTIONS OF EPHRINB-RGS3-KIF20A-SEPT7 AXIS” (CITY OF HOPE, priority 2021, published 2024)
“Also recorded” adds a separate entry of the source.

Assays:
GISC017 cells = assay: GISC017 xenograft in brains of NSG mice; format: in vivo; details: GISC017 clones with Tet-inducible shKIF20A726 in NSG mouse brain, doxycycline treatment
Protocol: FIG. 12a: NSG mice were injected with GISC017 cells stably integrated with Tet-inducible shRNA and luciferase. Treatment with doxycycline started at 10 days after cell implantation (indicated by the red line). FIG. 12b: Survival data of the mice were analyzed by Kaplan-Meier plot.
GISC017 cell clones stably integrated with a Tet-inducible shKIF20A726 and luciferase expression cassette were established.

human KIF20A transcript = assay: shRNA screening by dual luciferase reporter assay; format: cell-based; details: transfected HEK293 cells, shRNA in pNUT vector, cDNA target in psi-CHECK, 48 hours
Protocol: FIGS. 10a-10c show generation of human KIF20A shRNAs and stable Daoy cell lines. […] Candidate shRNAs in pNUT vector were first screened with a cDNA target cloned in psi-CHECK vector in transfected HEK293 cells, using a dual luciferase reporter assay and their cDNA target in psi-CHECK Vector (Promega). Six candidate shKIF20As were tested with this assay. […] Data are mean±S.D. **P<0.01, ***P<0.001 (two-way ANOVA).
DNA Constructs, Lentivirus Production: Lentiviral transfer plasmids used in this study include: Hiv7CMV-Cre-myc-2A-GFP (Addgene #117148), Hiv7CMV-GFP, Hiv7CMV-GFP-IRES-Luciferase, as well as Tet-on inducible shRNA plasmids Tet-pLKO-hushKIF20A726 or Tet-pLKO-hushKIF20A181-Puro (shRNA sequences were cloned into pLKO-Tet-On plasmid, Addgene #21915 at Agel/EcoRI sites). […]
shRNA design and screening: Potential shRNA sequences were selected using web-based design tool (rnaidesigner.thermofisher.com/rnaiexpress/design.do). shRNAs were expressed under the control of a mouse U6 promoter in pNUTs vector which additionally contains a ubiquitin promoter-EGFP expression cassette. Candidate shRNAs in pNUTs and cDNA target in psi-CHECK were co-transfected into HEK293 cells in triplicates; 48 hours later, the firefly and Renilla Luciferase values were determined with Promega's Dual-Luciferase® Reporter Assay System (Promega, E1910). […]

Daoy cells = assay: Intracranial Daoy tumor transplantation in NSG mice, bioluminescence imaging and survival; format: in vivo, mouse; details: Daoy Clone #2 in cerebellum of NSG mice
Source text: Expression of the two factors was highly correlated. […] Tumor growths were monitored by bioluminescence imaging. Doxycycline treatment started at four weeks after initial cell implantation (indicated with a red font and line). The treatment group of mice was first given doxycycline by gavage for two consecutive days and was then fed with doxycycline-containing food for the entire duration of the experiment.
Intracranial tumor transplantation and Bioluminescence imaging: NSG mice (8-10 weeks old) were anesthetized with isoflurane and oxygen and placed under microscope. […] The transplanted mice were then monitored weekly with luciferase-based bioluminescence imaging for tumor growth. […] Tumor growths in two mice groups were monitored weekly by bioluminescence imaging. Survivals of mice after cell transplantation were recorded and analyzed.
To examine the function of KIF20A in tumor formation by Daoy cells, 10^5 Clone #2 cells were injected into the cerebellum of each recipient NSG mouse using a method previously described^22. Growth of tumor cells was then monitored by bioluminescence imaging. […] The mice were then kept on doxycycline-containing food continuously and were monitored for tumor growth by bioluminescence imaging.

KIF20A = assay: Western blot of KIF20A in Daoy clones with Tet-on shKIF20A726; format: cell-based, human; details: three Daoy clones, doxycycline induction of Tet-on shKIF20A726
Protocol: Western Blot: Daoy cell clones stably integrated with Tet-on shKIF20A726 were cultured with or without Doxycycline induction for 3 days. These Daoy cells were washed with PBS, lysed with 2×SDS loading buffer and boiled for 5 minutes. Denatured proteins were resolved by SDS-PAGE and transferred to a PVDF membrane for Western blot detection by KIF20A (L13) antibody (1:500) and HRP-conjugated Donkey anti-Goat second antibody (1:2500) with chemiluminescent substrate (ThermoFisher Scientific, Cat: 34095).
Generation of Daoy cell lines with stably integrated Tet-on inducible shRNA expression system: Daoy cells were infected with lentivirus of Tet-on inducible human KIF20A shRNA-726 and GFP-Luciferase prepared from Tet-pLKO-hushKIF20A726 plasmid and Hiv7CMVGFP-IRES-Luciferase plasmid, respectively. The transduced Daoy cells were selected for stable single clones with Puromycin (1 μg/ml, Sigma-Aldrich) and GFP fluorescence signal in DMEM (Invitrogen) with 10% fetal bovine serum. Single clones were picked up by glass cloning cylinders (Sigma-Aldrich) in 10 cm plate. Three clones were obtained and tested for growth ability and doxycycline (0.5 μg/ml) inducibility using growth curve assay, western blots and luciferase reporter assay system. Clone #2 was selected for further use.

5′-GAGGAGTGTCTACATCGAA-TTCAAGAGA-TTCGATGTAGACACTCCTC-3′ (GAGGAGTGTCTACATCGAATTCAAGAGATTCGATGTAGACACTCCTC; hairpin, further chemistry not given here) [shKIF20A726, shRNA targeting human KIF20A transcript]
animal survival (GISC017 cells): prolong animal survival | tumor xenograft growth (GISC017 cells): suppress tumor xenograft growth | inhibition of expression of the human KIF20A transcript (luciferase assay) (human KIF20A transcript): significantly inhibit expression of the human KIF20A transcript | brain tumor growth (bioluminescence imaging) (Daoy cells; doxycycline from four weeks after implantation vs untreated): significantly slower growth of brain tumors; also recorded: inhibited tumor growth | survival (Kaplan-Meier) (Daoy cells; doxycycline treatment vs untreated): better overall survival | KIF20A expression (Western blot) (KIF20A): significant knockdown of KIF20A expression in all three cell clones; also recorded: reduction of KIF20A expression
